The values that follow come from patent US20260327232A1, “Heteroaryl Compounds as Ligand Directed Degraders of IRAK4” (Celgene Corporation, priority 2023, published 2026).

In experiment [1] the target is T1, IRAK4 (Homo sapiens, UniProt Q9NWZ3).
T1 sequence (Q9NWZ3 1-460): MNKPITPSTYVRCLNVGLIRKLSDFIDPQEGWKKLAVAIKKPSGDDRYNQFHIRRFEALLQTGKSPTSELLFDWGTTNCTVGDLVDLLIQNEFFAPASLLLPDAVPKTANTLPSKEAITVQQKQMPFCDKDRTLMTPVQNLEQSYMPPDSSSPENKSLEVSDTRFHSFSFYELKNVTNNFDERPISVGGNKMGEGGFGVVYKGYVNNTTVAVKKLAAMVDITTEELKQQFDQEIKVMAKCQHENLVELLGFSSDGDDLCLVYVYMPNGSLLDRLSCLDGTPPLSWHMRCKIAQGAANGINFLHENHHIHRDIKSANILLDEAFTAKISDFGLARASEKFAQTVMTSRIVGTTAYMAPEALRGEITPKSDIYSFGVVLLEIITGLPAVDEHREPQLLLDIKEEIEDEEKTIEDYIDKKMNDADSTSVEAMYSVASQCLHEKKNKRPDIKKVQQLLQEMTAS
Briefly: ALE THP1 HTRF (IRAK4 in THP1 cell lysates, Homogeneous Time Resolved Fluorescence). In kind it is cell-based. Details: THP1 Homogeneous Time Resolved Fluorescence (ALE THP1 HTRF) Procedure; endogenous in cells; host or cells: THP1. The note with it: THP1 cells. The procedure:
Cell culture media was prepared in a tissue culture hood in a sterile environment by adding 10% FBS and 1% Penicillin Streptomycin to 500 mL no phenol red RPMI 1640 media. The media was filtered through a Nalgene Bottle Top Filter and stored at 4° C.
For Homogenous Time Resolved Fluorescence (HTRF) assays, a Cisbio HTRF kit was used, which included: Lysis Buffer #1 4×, Blocking Reagent #3 100×, 20× Antibody 1 (Anti-IRAK4 d2), 20× Antibody 2 (Anti-IRAK4 k), and Detection Buffer.
4× Lysis Buffer was stored at 4° C. For use as 1× Lysis buffer, the 4× solution was diluted with de-ionized water (distilled water, Gibco Cat. #15230279) and 100× Blocking Reagent in a 1:3:0.04 volume ratio.
20× Antibody Solution aliquots were stored in −80° C. and the Detection Buffer was stored in 4° C. For use as a 1× Antibody Solution, the 20× Antibody Solution aliquot was diluted with Detection Buffer in a 1:19 volume ratio.
Cells were lysed at room temperature for 45 min with shaking. A BCA protein assay was performed and normalization was conducted to the desired total protein concentration with 1× lysis buffer. Next, 1× Antibody Solutions were prepared by adding 380 μL Detection Buffer to 20 μL 20× Antibody Solution aliquots and mixing well. 1× Antibody Solutions were combined 1:1 and briefly vortexed. For control wells, 20 μL 1× anti IRAK4-k Antibody Solution was saved. The 384-well plate (ProxiPlate-384 Plus, Perkin Elmer Cat. #6008289) was loaded by adding 4 μL of the mixed Antibody Solution to empty wells using a single channel repeater. Using a multi-channel repeater, 16 μL lysate was added per well, and any bubbles that were formed were popped with 20 μL pipette tips and Kimwipe edges. In column 10, triplicates of each control was prepared. In wells A10, B10, and C10, buffer control was prepared by adding 16 μL Lysis Buffer and 4 μL Detection Buffer. In wells D10, E10, and F10, cryptate control was prepared by adding 16 μL Lysis Buffer, 2 μL Detection Buffer, and 2 μL 1× anti IRAK4-k Antibody Solution. In wells G10, H10, and 110, a negative control was prepared by adding 16 μL Lysis Buffer and 4 μL mixed Antibody Solution. The plate was sealed with a clear seal and covered with an aluminum lid. The plate was spun down at 800 g for 5 min and incubated in the dark at room temperature overnight. The next day, the plate was spun down at 800 g for 5 min. The samples were analyzed by a plate reader (Envision, PerkinElmer) using the Desnor 384 HTRF program.
Background: TR-FRET usually uses a lanthanide donor and a delayed reading to cut background.

The target of experiment [2] is T1, IRAK4. The experiment in a line: IRAK4 PhosphoSens Biochemical Assay (BIOCHEM). Particulars: 200 μM ATP, 10 μM peptide substrate AQT0326, 1 nM IRAK4, room temperature, 240 minutes. The procedure:
The PhosphoSens® biochemical assay was performed as described by the vendor (AssayQuant Technologies Inc. Marlborough, MA). A 1.25× stock solution of IRAK4 (PV4002, ThermoFisher Scientific, Waltham, MA) and a 5× stock solution of ATP and Sox conjugated peptide substrate, AQT0326 (CSKS-AQT0326B, AssayQuant Technologies), were prepared in 1× kinase reaction buffer consisting of 50 mM HEPES, pH 7.5, 0.01% Brij-35, 0.5 mM EGTA, 20 mM MgCl2 and 1 mM DTT. 10 μL of the ATP and substrate solution mix, for a final concentration of 200 μM ATP and 10 μM peptide substrate, was added to a Coming 3574 384-well, white, non-binding surface microtiter plate containing 0.5 μL of serially diluted test compounds prepared in DMSO. The reactions were started with the addition of 40 μL of the enzyme solution, for a final IRAK4 concentration of 1 nM, and monitored every 71 seconds for 240 minutes at λEX 360/λEM 485 in a BioTek Synergy H4 plate reader (Agilent Technologies, Santa Clara, CA) at room temperature. The initial linear portions of the progress curves were fit according to a linear equation to yield the slopes and converted to % inhibition based on a value of 100% activity for the no inhibitor treated control. IC50 values of each compound were obtained by fitting the % inhibition-compound concentration curves using Dotmatics software (Dotmatics, Bishops Stortford, Hertfordshire, England).

The target of experiment [3] is T1, IRAK4. Briefly: IRAK4 PhosphoSens Biochemical Assay (BIOCHEM). Particulars: 200 μM ATP, 10 μM peptide substrate AQT0326, 1 nM IRAK4, room temperature, 240 minutes. This is another data set of the same source.

Some results are limits rather than exact numbers.

As usually defined, the EC50 is the midpoint of the concentration-response curve. Higher therefore signals lower potency in that assay. As a reminder, the IC50 is the concentration needed to halve the response being measured. Turning to `Cn1nc(C2CCC(=O)NC2=O)c2ccc(NC3CCN(CC4CCC(n5cc(NC(=O)c6cnn7ccc(N8C[C@H](N)C[C@@H](F)C8)nc67)c(C(F)F)n5)CC4)CC3)cc21` (stereo partly drawn) [P-2, N-[3-(difluoromethyl)-1-[4-[[4-[[3-(2,6-dioxo-3-piperidyl)-1-methyl-indazol-6-yl]amino]-1-piperidyl]methyl]cyclohexyl]pyrazol-4-yl]-5-[(3R,5R)-3-amino-5-fluoro-1-piperidyl]pyrazolo[1,5-a]pyrimidine-3-carboxamide], it took 4 nM to reach a half-maximal effect on IRAK4 [1] (EC50). Besides, on IRAK4 [2], the IC50 was below 0.5 nM.
For `Cn1nc(C2CCC(=O)NC2=O)c2cccc(NC3CCN(CC4CCC(n5cc(NC(=O)c6cnn7ccc(N8C[C@H](N)C[C@@H](F)C8)nc67)c(C(F)F)n5)CC4)CC3)c21` (stereo partly drawn) [P-3] the same measures were 8 nM and below 0.5 nM.
On IRAK4 [1], `Cn1nc(C2CCC(=O)NC2=O)c2ccc(NC3CCN(CC4CCC(n5cc(NC(=O)c6cnn7ccc(N8CC[C@H](F)[C@@H](N)C8)nc67)c(C(F)F)n5)CC4)CC3)cc21` (stereo partly drawn) [P-18, N-[3-(Difluoromethyl)-1-[4-[[4-[[3-(2,6-dioxo-3-piperidyl)-1-methyl-indazol-6-yl]amino]-1-piperidyl]methyl]cyclohexyl]pyrazol-4-yl]-5-[(3S,4S)-3-amino-4-fluoro-1-piperidyl]pyrazolo[1,5-a]pyrimidine-3-carboxamide] registered an EC50 of 1 nM. Also, the IC50 on IRAK4 [2] was below 0.5 nM.
In the case of `CN(C[C@H]1CC[C@H](n2cc(NC(=O)c3cnn4ccc(N5CCOCC5)nc34)c(C(F)F)n2)CC1)C1CCN(c2ccc3c(C4CCC(=O)NC4=O)nn(C)c3c2)CC1` (stereo partly drawn) [P-29, N-[3-(Difluoromethyl)-1-[4-[[[1-[3-(2,6-dioxo-3-piperidyl)-1-methyl-indazol-6-yl]-4-piperidyl]-methyl-amino]methyl]cyclohexyl]pyrazol-4-yl]-5-morpholino-pyrazolo[1,5-a]pyrimidine-3-carboxamide], on IRAK4 [1], the 50% effective concentration (EC50) is above 10000 nM. The molecule also returned an IC50 against IRAK4 [3] below 0.5 nM.
For `CN(c1ccc2c(C3CCC(=O)NC3=O)nn(C)c2c1)C1CCN(C[C@H]2CC[C@H](n3cc(NC(=O)c4cnn5ccc(N6C[C@H](N)C[C@@H](F)C6)nc45)c(C(F)F)n3)CC2)CC1` (stereo partly drawn) [P-31] the same measures were 3 nM and below 0.5 nM.
The corresponding values for `CN(c1ccc2c(C3CCC(=O)NC3=O)nn(C)c2c1)C1CCN(C[C@H]2CC[C@H](n3cc(NC(=O)c4cnn5ccc(N6CCOCC6)nc45)c(C(F)F)n3)CC2)CC1` (stereo partly drawn) [P-32] are 1 nM and below 0.5 nM.
For `CN(c1ccc2c(C3CCC(=O)NC3=O)nn(C)c2c1)C1CCN(CC[C@H]2CC[C@H](n3cc(NC(=O)c4cnn5ccc(N6C[C@H](N)C[C@@H](F)C6)nc45)c(C(F)F)n3)CC2)CC1` (stereo partly drawn) [P-33] the same measures were 10 nM and below 0.5 nM.
Molecule `CN(CC[C@H]1CC[C@H](n2cc(NC(=O)c3cnn4ccc(N5CCOCC5)nc34)c(C(F)F)n2)CC1)C1CCN(c2cccc3c(C4CCC(=O)NC4=O)nn(C)c23)CC1` (stereo partly drawn) [P-35] yielded a half-maximal effective concentration (EC50) on IRAK4 [1] of 4 nM. The molecule also gave an IC50 on IRAK4 [3] of 0.8 nM.
The corresponding values for `C[C@H]1CN(CCN2CCC(n3cc(NC(=O)c4cnn5ccc(N6C[C@H](N)C[C@@H](F)C6)nc45)c(C(F)F)n3)CC2)CCN1c1ccc2c(C3CCC(=O)NC3=O)nn(C)c2c1` (stereo partly drawn) [P-36] are 5 nM and below 0.5 nM.
With `C[C@@H]1CN(CCN2CCC(n3cc(NC(=O)c4cnn5ccc(N6C[C@H](N)C[C@@H](F)C6)nc45)c(C(F)F)n3)CC2)CCN1c1ccc2c(C3CCC(=O)NC3=O)nn(C)c2c1` (stereo partly drawn) [P-37, 5-((3R,5R)-3-amino-5-fluoropiperidin-1-yl)-N-(3-(difluoromethyl)-1-(1-(2-((3R)-4-(3-(2,6-dioxopiperidin-3-yl)-1-methyl-1H-indazol-6-yl)-3-methylpiperazin-1-yl)ethyl)piperidin-4-yl)-1H-pyrazol-4-yl)pyrazolo[1,5-a]pyrimidine-3-carboxamide], on IRAK4 [1], the EC50 stood at 5 nM. Moreover, the 50% inhibitory concentration (IC50) against IRAK4 [3] is below 0.5 nM.
For `CN(CC[C@H]1CC[C@H](n2cc(NC(=O)c3cnn4ccc(N5CCOCC5)nc34)c(C(F)F)n2)CC1)C1CCN(c2ccc3c(C4CCC(=O)NC4=O)nn(C)c3c2)CC1` (stereo partly drawn) [P-38] the same measures were above 10000 nM and below 0.5 nM.
The corresponding values for `Cn1nc(C2CCC(=O)NC2=O)c2ccc(N3CCN(CCN4CCC(n5cc(NC(=O)c6cnn7ccc(N8C[C@H](N)C[C@@H](F)C8)nc67)c(C(F)F)n5)CC4)CC3)cc21` (stereo partly drawn) [P-40, N-[3-(Difluoromethyl)-1-[1-[2-[4-[3-(2,6-dioxo-3-piperidyl)-1-methyl-indazol-6-yl]piperazin-1-yl]ethyl]-4-piperidyl]pyrazol-4-yl]-5-[(3R,5R)-3-amino-5-fluoro-1-piperidyl]pyrazolo[1,5-a]pyrimidine-3-carboxamide] are 6 nM and below 0.5 nM.
For `CN(C[C@H]1CC[C@H](n2cc(NC(=O)c3cnn4ccc(N5CCOC5)nc34)c(C(F)F)n2)CC1)C1CCN(c2ccc3c(C4CCC(=O)NC4=O)nn(C)c3c2)CC1` (stereo partly drawn) [P-41] the same measures were above 10000 nM and below 0.5 nM.
Turning to `CN(C)c1ccn2ncc(C(=O)Nc3cn([C@H]4CC[C@H](CN(C)C5CCN(c6ccc7c(C8CCC(=O)NC8=O)nn(C)c7c6)CC5)CC4)nc3C(F)F)c2n1` (stereo partly drawn) [P-43], on IRAK4 [1], the EC50 is above 10000 nM. The molecule also registered a concentration for half-maximal inhibition (IC50) on IRAK4 [3] below 0.5 nM.
The corresponding values for `CN(C[C@H]1CC[C@H](n2cc(NC(=O)c3cnn4ccc(NCc5ccccn5)nc34)c(C(F)F)n2)CC1)C1CCN(c2ccc3c(C4CCC(=O)NC4=O)nn(C)c3c2)CC1` (stereo partly drawn) [P-44] are above 10000 nM and 7.3 nM.
The corresponding values for `CN(C[C@H]1CC[C@H](n2cc(NC(=O)c3cnn4ccc(NCCN)nc34)c(C(F)F)n2)CC1)C1CCN(c2ccc3c(C4CCC(=O)NC4=O)nn(C)c3c2)CC1` (stereo partly drawn) [P-45] are 4 nM and below 0.5 nM.
As for `CN(C[C@H]1CC[C@H](n2cc(NC(=O)c3cnn4ccc(N5CC[C@H](c6ccn(C)n6)C5)nc34)c(C(F)F)n2)CC1)C1CCN(c2ccc3c(C4CCC(=O)NC4=O)nn(C)c3c2)CC1` (stereo partly drawn) [P-46], the EC50 at IRAK4 [1] was above 3000 nM. On IRAK4 [3], this molecule showed an IC50 of 0.8 nM.
For `CN(C[C@H]1CC[C@H](n2cc(NC(=O)c3cnn4ccc(N5CC[C@@H](c6ccn(C)n6)C5)nc34)c(C(F)F)n2)CC1)C1CCN(c2ccc3c(C4CCC(=O)NC4=O)nn(C)c3c2)CC1` (stereo partly drawn) [P-47] the same measures were 3750 nM and 2.4 nM.
